Test results taken from PubChem BioAssay AID1053149 (Broad Institute, 2014).

Tests used:
[1] = reduction of secreted PCSK9 protein, dose response, orthogonal assay for Trib1 inducer project, cell-based, HepG2, ELISA, plate reader, cherry-pick (AID 1053149); conditions: HepG2 secreted PCSK9, ELISA, 24 h; measured here: maximal PCSK9 decrease; stronger effect = higher value
[2] = test system: HepG2 secreted PCSK9, ELISA, 24 h; test: as above

Row | SMILES | decrease in PCSK9 [1] | AC50 [2]
1 | CN1C(=O)c2cc(NC(=O)c3ccc(C(F)(F)F)cc3)ccc2OC[C@@H]2O[C@@H](CC(=O)NC3Cc4ccccc4C3)CC[C@@H]21 | 80% | 6.6 µM
2 | CN1C(=O)c2cc(NC(=O)c3ccc(C(F)(F)F)cc3)ccc2OC[C@@H]2O[C@H](CC(=O)NC3Cc4ccccc4C3)CC[C@@H]21 | 79% | 0.6 µM
